From publication PMC3277506, “Extra-Renal Elimination of Uric Acid via Intestinal Efflux Transporter BCRP/ABCG2” (PLoS ONE, 2012)

Tests used:
[1] = target: T1, rBcrp (Rattus norvegicus, UniProt Q80W57); experiment: [14C]uric acid uptake by rBcrp-expressing membrane vesicles; type: biochemical; set-up: purchased GenoMembrane Inc. (Yokohama, Japan); host or cells: Sf9 cells
T1 sequence (Q80W57 1-657): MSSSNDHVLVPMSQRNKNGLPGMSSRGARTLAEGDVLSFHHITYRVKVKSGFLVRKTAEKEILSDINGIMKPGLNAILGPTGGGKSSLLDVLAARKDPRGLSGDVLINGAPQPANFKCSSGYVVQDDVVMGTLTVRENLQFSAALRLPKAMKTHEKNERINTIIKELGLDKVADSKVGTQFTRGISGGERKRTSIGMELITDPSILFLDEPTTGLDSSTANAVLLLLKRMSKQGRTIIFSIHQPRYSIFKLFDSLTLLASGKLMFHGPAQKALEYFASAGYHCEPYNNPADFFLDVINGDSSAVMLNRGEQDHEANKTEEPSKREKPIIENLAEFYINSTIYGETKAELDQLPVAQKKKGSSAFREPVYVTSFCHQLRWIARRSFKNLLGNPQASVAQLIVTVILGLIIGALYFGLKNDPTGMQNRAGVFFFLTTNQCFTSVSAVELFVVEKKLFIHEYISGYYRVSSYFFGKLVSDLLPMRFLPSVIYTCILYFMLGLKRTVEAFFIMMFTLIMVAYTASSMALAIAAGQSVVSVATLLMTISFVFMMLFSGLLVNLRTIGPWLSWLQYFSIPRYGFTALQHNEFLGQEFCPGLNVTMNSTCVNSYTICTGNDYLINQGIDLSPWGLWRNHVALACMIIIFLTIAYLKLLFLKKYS
Procedure: (§1) hBCRP/rBcrp, hMRP2/rMrp2, or hMDR1-expressing membrane vesicles prepared from Sf9 cells were purchased from GenoMembrane Inc. (Yokohama, Japan). Uptake experiments were conducted as described previously. Briefly, after a pre-incubation for 5 min at 37°C, membrane vesicles (50 µg protein/50 µL final reaction volume) were incubated for 5 min at 37°C in the presence of 4 mM ATP or AMP in assay buffer (1 M KCl, 1 M MgCl2, and 100 mM MOPS-Tris, pH 7.0) containing [^14C]uric acid (1 µCi/mL). The uptake reaction was terminated by adding 1 mL ice-cold washing buffer (1 M KCl, and 100 mM MOPS-Tris, pH 7.0) to the membrane solution, and the mixture was rapidly filtered through a nitrocellulose filter (0.45 µm pore size, Millipore, Bedford, MA). The filters were washed twice with 5 mL ice-cold washing buffer. The filters were dried and dissolved in Clearsol-I for quantitation of radioactivity.

[2] = target: T2, hBCRP (Homo sapiens, UniProt Q9UNQ0); set-up: method as in PMID 20368174; details: read-out: Km of uric acid to hBCRP; cited from earlier work
T2 construct: purchased GenoMembrane Inc. (Yokohama, Japan); host or cells: Sf9 cells
T2 sequence (Q9UNQ0 1-655): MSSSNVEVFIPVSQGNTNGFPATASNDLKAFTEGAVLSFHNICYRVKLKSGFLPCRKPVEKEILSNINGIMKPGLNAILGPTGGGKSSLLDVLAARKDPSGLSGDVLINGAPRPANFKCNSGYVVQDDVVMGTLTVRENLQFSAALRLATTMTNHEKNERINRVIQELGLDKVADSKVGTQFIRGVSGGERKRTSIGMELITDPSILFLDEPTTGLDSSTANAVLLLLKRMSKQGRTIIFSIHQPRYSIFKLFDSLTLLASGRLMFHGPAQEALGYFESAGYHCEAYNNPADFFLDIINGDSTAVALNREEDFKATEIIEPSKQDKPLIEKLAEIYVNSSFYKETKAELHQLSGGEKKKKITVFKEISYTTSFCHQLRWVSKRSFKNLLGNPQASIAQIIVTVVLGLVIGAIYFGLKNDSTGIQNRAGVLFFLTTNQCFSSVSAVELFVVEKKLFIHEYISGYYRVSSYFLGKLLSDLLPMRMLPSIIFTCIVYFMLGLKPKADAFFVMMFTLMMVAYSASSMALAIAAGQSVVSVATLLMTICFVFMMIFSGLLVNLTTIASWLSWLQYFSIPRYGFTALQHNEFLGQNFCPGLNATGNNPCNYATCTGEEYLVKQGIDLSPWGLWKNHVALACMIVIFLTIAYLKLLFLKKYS

[3] = Bidirectional transcellular transport of [14C]uric acid in Caco-2 cells; type: in vitro ADME, human; details: human, Control (no inhibitor)
Procedure: Caco-2 cells were obtained from the American Type Culture Collection (Rockville, MD). Caco-2 cells were cultured in Dulbecco's modified Eagle's medium (D-MEM) (Invitrogen, Carlsbad, CA) supplemented with 10% (v/v) fetal bovine serum (Invitrogen), 100 units/mL benzylpenicillin, 100 µg/mL streptomycin, 1% (v/v) MEM non-essential amino acid solution (Invitrogen) at 37°C under an atmosphere of 5% CO2 in air. For bidirectional transport studies, Caco-2 cells were cultured on Transwell filter membrane inserts (BD Falcon, surface area 0.9 cm^2 and pore size 3 µm) at a density of 6.4×10^4 cells/cm^2 for 21 days before use for each experiment. […] Inhibitor was added to only apical side. Transport of [^14C]uric acid was measured in two directions, namely apical (AP)-to-basal (BL) and BL-to-AP directions. An aliquot of transport buffer was obtained from the donor side at 5 min for measurement of initial concentration, and from the receiver side at 30, 60, 90 and 120 min. Transport studies were performed at 37°C and pH 7.4.
The apparent permeability (Papp, cm/sec) of [^14C]uric acid across the cell monolayer was calculated using the following equation: [drawing 4] where Q is the amount of [^14C]uric acid transported over time t. Cd is the initial concentration in the donor side and A is the surface area of membrane.

[4] = humans; cited from earlier work
[5] = target: T2, hBCRP; experiment: [14C]uric acid uptake by hBCRP-expressing membrane vesicles; type: biochemical; details: [14C]uric acid 20 µM, 5 min, 37°C, 4 mM ATP or AMP
Procedure: as §1

In the case of `O=c1[nH]c(=O)c2[nH]c(=O)[nH]c2[nH]1` [uric acid], the “Vmax of uric acid transport by rBcrp” value ([1]; ATP-dependent uptake, maximum uric acid concentration 5 mM) is listed as 67.3±4.21 nmol/5 min/mg protein, the “Uptake of uric acid in the presence of ATP versus AMP” value ([1]; [14C]uric acid 20 µM, 5 min, 37°C, 4 mM ATP or AMP) is listed as “significantly higher” and the Km [2] is listed as 8.24 mM. For the same molecule, the efflux ratio at 120 min ([3]; Caco-2, pH 7.4, BL-to-AP / AP-to-BL permeability) was 2.13 ± 0.19, the Papp A→B at 120 min ([3]; Caco-2 monolayer, 37°C, pH 7.4, read-out: Permeability AP to BL) was 0.81 ± 0.02 ×10⁻⁶ cm/s and the Papp B→A at 120 min ([3]; Caco-2 monolayer, 37°C, pH 7.4, read-out: Permeability BL to AP) was 1.73 ± 0.11 ×10⁻⁶ cm/s. For the same molecule, the “Biliary clearance of uric acid” value [4] was 0.1 to 0.3 mL/min, the “Uric acid concentration in bile” value [4] was 1 to 2 mg/dL and the “Urinary clearance of uric acid” value [4] was 5.8 to 6.3 mL/min. For the same molecule, the “Uptake of uric acid in the presence of ATP versus AMP” value [5] was “significantly higher”.
